Patent US12153287B2, “Sustained fatty acid release from contact lens” (CooperVision International Limited, priority 2022, dated 2024)

Molecular target: T1, recombinant human PLA2G2A (sPLA2-IIA) (Homo sapiens, UniProt P14555)
T1 sequence (P14555 21-144): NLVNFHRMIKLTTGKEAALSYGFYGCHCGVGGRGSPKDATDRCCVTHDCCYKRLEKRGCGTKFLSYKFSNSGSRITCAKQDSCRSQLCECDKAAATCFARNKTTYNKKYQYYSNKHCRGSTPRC
Test: Susceptibility of phospholipid digestion by sPLA2-IIA (lens pieces in ATF with and without sPLA2, LCMS of released fatty acid)
Details: phospholipid present in a silicone hydrogel contact lens body
Procedure: Each phospholipid-loaded lens is removed from its package and placed in a 6 mL glass vial containing 5 mL of the ATF described in Example 2 at room temperature on a shaker at 125 rpm overnight to elute any free fatty acid that may be present in the lens.
Each lens is rinsed in a 6 ml glass vial containing a fresh aliquot of 5 mL ATF for 30 minutes prior to running the digestion assay.
Two 4 mm pieces are cut from each lens. One piece of each lens is placed in a tube with 100 μL ATF and the other piece is placed in a tube containing 100 μL ATF+sPLA2. The tubes are incubated at 35±2° C. for 4 hours with no shaking.
T=0 hr HPLC vials are also prepared (50 μl ATF+500 μl IPA). All vials are sonicated for 15 minutes and centrifuged. […]
The supernatants are injected on an LCMS instrument equipped with an ACQUITY UPLC BEH C18 1.7 μg, 2.1 mm×15 cm column and running a mobile phase gradient from 65% A to 90% B at a flow rate of 0.35 mL/min with A=40% acetonitrile in water with 10 mM ammonium acetate and 0.2% (v/v) ammonium hydroxide, and B=10% acetonitrile in IPA with 10 mM ammonium acetate and 0.2% (v/v) ammonium hydroxide. […] The peak for the particular fatty acid of interest in the supernatants (i.e., the fatty acid that is released from the sn-2 position of the phospholipid in the contact lens) is measured. The ratio of fatty acid peak area in ATF with and without sPLA2 is calculated. […]

Row | Structure (SMILES) | Susceptibility to digestion by sPLA2 enzymes found in human tears
1 | CCCCCCCCCCCCCC(=O)OC[C@H](COP(=O)([O-])OCC[N+](C)(C)C)OC(=O)CCCCCCCCCCCCC [DMPC, 1,2-dimyristoyl-sn-glycero-3-phosphocholine] | not susceptible to digestion
2 | CCCCCCCC/C=C\CCCCCCCC(=O)OC[C@H](COP(=O)([O-])OCC[N+](C)(C)C)OC(=O)CCCCCCC/C=C\CCCCCCCC [DOPC, 1,2-dioleoyl-sn-glycero-3-phosphocholine] | not susceptible to digestion
